PubChem BioAssay (NCI)
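Method: 48-hour compound exposure of cells in 96-well plates, five concentrations, linear interpolation of endpoints. Definition used: TGI = concentration required for complete inhibition of growth.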

Columns and labels:
Assay in all cases: NCI tumour cell line growth inhibition, 48 h
[1] = system: HCC-2998 colon
[2] = system: HCT-15 colon
[3] = system: RXF-631 renal
[4] = system: DMS 114 small cell lung
[5] = system: PC-3 prostate
[6] = system: HT29 colon
[7] = system: NCI-H522 lung
[8] = system: LXFL 529 NSCLC
[9] = system: M14 melanoma
[10] = system: HOP-18 NSCLC
[11] = system: SN12C renal
[12] = system: SK-OV-3 ovarian
[13] = system: SR leukemia
[14] = system: DLD-1 colon
[15] = system: DMS 273 small cell lung
[16] = system: UO-31 renal
[17] = system: EKVX NSCLC
[18] = system: MCF7 breast
[19] = system: NCI-H460 lung
[20] = system: SF-539 CNS
[21] = system: RPMI-8226 leukemia
[22] = system: MDA-MB-231 breast
[23] = system: IGROV1 ovarian
[24] = system: SNB-75 CNS
[25] = system: HCT-116 colon
[26] = system: UACC-62 melanoma
[27] = system: SK-MEL-5 melanoma
[28] = system: OVCAR-8 ovarian
[29] = system: OVCAR-5 ovarian
[30] = system: T-47D breast
[31] = system: CAKI-1 renal
[32] = system: COLO 205 colon
[33] = system: A498 renal
[34] = system: UACC-257 melanoma
[35] = system: SK-MEL-2 melanoma
[36] = system: SNB-78 CNS
[37] = system: KM20L2 colon
[38] = system: RXF 393 renal
[39] = system: MDA-MB-435
[40] = system: XF 498 CNS
[41] = system: A549 NSCLC
[42] = system: MALME-3M melanoma
[43] = system: CCRF-CEM leukemia
[44] = system: HL-60(TB) leukemia
[45] = system: TK-10 renal
[46] = system: DU-145 prostate
[47] = system: HOP-62 NSCLC
[48] = system: OVCAR-4 ovarian
[49] = system: 786-0 renal
[50] = system: KM12 colon
[51] = system: U251 CNS
[52] = system: ACHN renal
[53] = system: OVCAR-3 ovarian
[54] = system: NCI-H23 lung
[55] = system: HS 578T breast
[56] = system: SW-620 colon
[57] = system: MOLT-4 leukemia
[58] = system: MDA-N
[59] = system: M19-MEL melanoma
[60] = system: SK-MEL-28 melanoma
[61] = system: NCI-H226 lung
[62] = system: K-562 leukemia
[63] = system: LOX IMVI melanoma
[64] = system: SNB-19 CNS
[65] = system: SF-295 CNS
[66] = system: SF-268 CNS
[67] = system: HOP-92 NSCLC
[68] = system: NCI/ADR-RES ovarian
[69] = system: BT-549 breast
[70] = system: SN12K1 renal
[71] = system: P388 leukemia
[72] = system: P388/ADR leukemia

N#CC1(C2SCCS2=O)C2=C(C(=O)c3ccccc3C2=O)N2CCCC21 (centres undefined)
TGI [1]: 11.8 µM
TGI [2]: 6.63 µM
TGI [3]: 5.3 µM
TGI [4]: 6 µM
TGI [5]: 14.7 µM
TGI [6]: 14.2 µM
TGI [7]: 5.78 µM
TGI [8]: 8.06 µM
TGI [9]: 2.77 µM
TGI [10]: 8.16 µM
TGI [11]: 6.71 µM
TGI [12]: 51.7 µM
TGI [13]: 20.7 µM
TGI [14]: 14.1 µM
TGI [15]: 12.2 µM
TGI [16]: 14.2 µM
TGI [17]: 13.9 µM
TGI [18]: 3.73 µM
TGI [19]: 11.8 µM
TGI [20]: 9.11 µM
TGI [21]: 9.91 µM
TGI [22]: 9.21 µM
TGI [23]: 5.76 µM
TGI [24]: 8.04 µM
TGI [25]: 5.56 µM
TGI [26]: 6.54 µM
TGI [27]: 1.1 µM
TGI [28]: 7.83 µM
TGI [29]: 9.39 µM
TGI [30]: 8.16 µM
TGI [31]: 15 µM
TGI [32]: 5.71 µM
TGI [33]: 13 µM
TGI [34]: 2.99 µM
TGI [35]: 4.12 µM
TGI [36]: 6.89 µM
TGI [37]: 19.3 µM
TGI [38]: 10.9 µM
TGI [39]: 1.3 µM
TGI [40]: 8.15 µM
TGI [41]: 6.26 µM
TGI [42]: 1.27 µM
TGI [43]: 24.5 µM
TGI [44]: 6.79 µM
TGI [45]: 43.7 µM
TGI [46]: 4.93 µM
TGI [47]: 14.9 µM
TGI [48]: 4.09 µM
TGI [49]: 18.7 µM
TGI [50]: 13.1 µM
TGI [51]: 11.3 µM
TGI [52]: 16.2 µM
TGI [53]: 2.04 µM
TGI [54]: 3.51 µM
TGI [55]: 12.8 µM
TGI [56]: 6.41 µM
TGI [57]: 19.7 µM
TGI [58]: 1.55 µM
TGI [59]: 0.788 µM
TGI [60]: 7.8 µM
TGI [61]: 10.7 µM
TGI [62]: 25.7 µM
TGI [63]: 6.53 µM
TGI [64]: 16.8 µM
TGI [65]: 7.82 µM
TGI [66]: 11.2 µM
TGI [67]: 11.9 µM
TGI [68]: 10.2 µM
TGI [69]: 4.3 µM

CC(=O)OCC1OC(Nc2ncc(-c3ccc(C)cc3)s2)C(OC(C)=O)C(OC(C)=O)C1OC(C)=O (centres undefined)
TGI [1]: > 62.9 µM
TGI [2]: > 100 µM
TGI [4]: > 100 µM
TGI [6]: > 100 µM
TGI [70]: > 100 µM
TGI [7]: > 100 µM
TGI [10]: > 100 µM
TGI [11]: 62.2 µM
TGI [12]: > 100 µM
TGI [14]: > 100 µM
TGI [15]: > 100 µM
TGI [16]: 41 µM
TGI [17]: > 100 µM
TGI [18]: 35.8 µM
TGI [19]: > 80.9 µM
TGI [20]: > 82.6 µM
TGI [21]: 65.4 µM
TGI [23]: > 100 µM
TGI [24]: > 100 µM
TGI [25]: > 62.5 µM
TGI [26]: > 77.2 µM
TGI [27]: > 100 µM
TGI [28]: > 100 µM
TGI [29]: > 100 µM
TGI [31]: > 81.1 µM
TGI [32]: > 100 µM
TGI [33]: > 100 µM
TGI [34]: 58.3 µM
TGI [35]: > 78.2 µM
TGI [36]: > 100 µM
TGI [38]: > 100 µM
TGI [71]: 72.5 µM
TGI [41]: > 100 µM
TGI [42]: > 100 µM
TGI [43]: > 100 µM
TGI [44]: 43.7 µM
TGI [47]: > 100 µM
TGI [48]: 60.6 µM
TGI [50]: > 94.1 µM
TGI [51]: > 100 µM
TGI [53]: > 88.1 µM
TGI [54]: > 100 µM
TGI [56]: > 100 µM
TGI [57]: 65.3 µM
TGI [59]: > 31.6 µM
TGI [60]: > 100 µM
TGI [61]: 91.4 µM
TGI [62]: > 100 µM
TGI [63]: > 68.3 µM
TGI [64]: > 100 µM
TGI [65]: > 100 µM
TGI [72]: > 94.1 µM
TGI [66]: > 100 µM
TGI [67]: > 100 µM
TGI [68]: 78 µM
